Results on 13 compounds are retold here after US9212168B2 (priority 2011, dated 2015).

The subject of the test is HCV genotype 1a replicon. The test is described as follows: HCV genotype 1a replicon assay (NS3 protease activity readout). The test is classed as cell-based, hepatitis C virus. Particulars: for Genotype 1a: HCV genotype 1a replicon; for EC50: Hepatitis C virus, read-out: Genotype 1a, HCV genotype 1a replicon. In short, it runs like this:
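EC50 values came from a 4-parameter robust fit of fluorescence (ex 340, em 509 nm) produced by NS3-specific protease in lysates, assayed with 15 μM FRET substrate for 20 min at 37° C, after 48 or 72 hours of compound exposure (0.5% DMSO) of Huh7.5-derived APC89 genotype 1a replicon cells.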

Take `COC(=O)N[C@H](C(=O)N1C[C@@H](C)C[C@H]1c1nc(-c2ccc(-c3ccc(C(=O)Nc4ccc(N5C[C@H](C)N(C(=O)[C@@]6(O)CC6(C)C)C[C@H]5C)nc4)cc3OC(F)(F)F)cc2)c[nH]1)C(C)C` [Example 4-38]: the “Genotype 1a” value is “C (C represents pEC50 between and 9 and about 10, (EC50 between 1 nM and 0.1 nM))”.
Same read-out and setting: for `COC(=O)N[C@H](C(=O)N1C[C@@H](N(C)C)C[C@H]1c1nc(-c2ccc(-c3ccc(NC(=O)c4ccc(N5CCN(C(=O)[C@H]6CC6(C)C)C[C@H]5C)nc4)cc3C)cc2)c[nH]1)C(C)C` [Example 2-4] the value was “D (D represents pEC50>10 (EC50<0.1 nM))”.
Consider `COC(=O)N[C@H](C(=O)N1C[C@@H](N2CCOCC2)C[C@H]1c1nc(-c2ccc(-c3cc(Cl)c(NC(=O)c4ccc(N5CCN(C(=O)C(C)(C)C)C[C@H]5C)nc4)cc3OC(F)(F)F)cc2)c[nH]1)C(C)C` [Example 15-5], for which the EC50 is less than 0.1 nM.
In the case of `COC(=O)N[C@H](C(=O)N1C[C@@H](C)C[C@H]1c1nc(-c2ccc(-c3cc(F)c(NC(=O)c4ccc(N5CCN(C(=O)C6CC6)C[C@H]5C)nc4)cc3F)cc2)c[nH]1)C(C)C` [Example 1-83], the “Genotype 1a” value is “C (C represents pEC50 between and 9 and about 10, (EC50 between 1 nM and 0.1 nM))”.
With `COC(=O)N[C@H](C(=O)N1C[C@@H](N(C)C(C)C)C[C@H]1c1nc(-c2ccc(-c3cc(Cl)c(NC(=O)c4ccc(N5CCN(C(=O)C(C)(C)C)C[C@H]5C)nc4)cc3OC(F)(F)F)cc2)c[nH]1)C(C)C` [Example 15-7], the EC50 was less than 0.1 nM.
In the case of `COC(=O)N[C@H](C(=O)N1C[C@@H](C)C[C@H]1c1nc(-c2ccc(-c3cc(Cl)c(NC(=O)c4ccc(N5CCN(C(=O)C(C)(C)CO)C[C@H]5C)nc4)cc3C(F)(F)F)cc2)c[nH]1)C1CCCCC1` [Example 19-7], the “Genotype 1a” value was “B (B represents pEC50 between 8 and 9 (EC50 between 1 and 10 nM))”.
Same read-out and setting: for `CNC(=O)N1CCC[C@@]1(C)C(=O)N1C[C@@H](C)N(c2ccc(C(=O)Nc3cc(OC(F)(F)F)c(-c4ccc(-c5c[nH]c([C@@H]6C[C@H](C)CN6C(=O)[C@@H](NC(=O)OC)C(C)C)n5)cc4)cc3F)cn2)C[C@@H]1C` [Example 1-24] the value was “D (D represents pEC50>10 (EC50<0.1 nM))”.
As to `COC(=O)N[C@H](C(=O)N1C[C@@H](OC)C[C@H]1c1nc(-c2ccc(-c3cc(F)c(NC(=O)c4ccc(N5CCN(C(=O)C(C)(C)C)[C@@H](CO)C5)nc4)cc3OC(F)(F)F)cc2)c[nH]1)C1CCOCC1` [Example 5-16], the EC50 is less than 0.1 nM.
In the case of `COC(=O)N[C@H](C(=O)N1C[C@@H](C)C[C@H]1c1nc(-c2ccc(-c3cc(Cl)c(NC(=O)c4ccc(N5CCN(C(=O)[C@H]6CCCN6S(C)(=O)=O)C[C@H]5C)nc4)cc3OC(F)(F)F)cc2)c[nH]1)C(C)C` [Example 1-39], the “Genotype 1a” value is given as “D (D represents pEC50>10 (EC50<0.1 nM))”.
`COC(=O)N[C@H](C(=O)N1[C@@H](C)CC[C@H]1c1nc(-c2ccc(-c3ccc(C(=O)Nc4ccc(N5CCN(C(=O)C(C)(C)C)C[C@H]5C)nc4)cc3OC(F)(F)F)cc2)c[nH]1)C(C)C` [Example 18-4]: the “Genotype 1a” value was “C (C represents pEC50 between and 9 and about 10, (EC50 between 1 nM and 0.1 nM))”.
Still for that read-out and setting: then `COC(=O)N[C@H](C(=O)N1C[C@@H](C)C[C@H]1c1nc(-c2ccc(-c3cc(F)c(C(=O)Nc4ccc(N5CCN(C(=O)C(C)(C)C)C[C@H]5C)nc4)cc3OC(F)(F)F)cc2)c(Cl)[nH]1)C(C)C` [Example 4-45], with “C (C represents pEC50 between and 9 and about 10, (EC50 between 1 nM and 0.1 nM))”.
On to `COC(=O)N[C@H](C(=O)N1C[C@@H](S(C)(=O)=O)C[C@H]1c1nc(-c2ccc(-c3ccc(C(=O)Nc4ccc(N5CCN(C(=O)[C@H]6CC6(C)C)C[C@H]5C)nc4)cc3OC(F)(F)F)cc2)c[nH]1)C(C)C` [Example 6-21], for which the EC50 was 0.1 to 1 nM.
Still for that read-out and setting: for `COC(=O)N[C@H](C(=O)N1C[C@@H](C)C[C@H]1c1nc(-c2ccc(-c3cc(Cl)c(NC(=O)c4ccc(N5CCN(C(=O)C(C)N(C)C)C[C@H]5C)nc4)cc3OC(F)(F)F)cc2)c[nH]1)C(C)C` (stereo partly shown) [Example 12-23] the value was less than 0.1 nM.
